The target in assay [1] is T1, RNase P holoenzyme from Thermotoga maritima (Thermotoga maritima, UniProt Q9X1H4).
T1 construct: made in house
T1 sequence (Q9X1H4 1-117): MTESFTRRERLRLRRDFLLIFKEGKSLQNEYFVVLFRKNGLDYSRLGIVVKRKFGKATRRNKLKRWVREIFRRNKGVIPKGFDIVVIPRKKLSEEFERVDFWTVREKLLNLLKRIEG
In words: Verification of deconvoluted hits by fluorescence- and gel-based assays with Mh substrate. Format: biochemical. The settings on record: 250 μM (fluorescence) and 500 μM (gel). As to the method: For gel-based activity assays, reactions were prepared as described in the previous section (fluorescence activity assay), incubated for 1–15 min at 37–50°C, then loaded onto a denaturing 7 M urea–20% acrylamide gel in the case of the Mh substrate or 19% acrylamide (40% acrylamide/bisacrylamide 38.5:1.5) for the bipartite pre-tRNA substrate. The activity conditions for the gel reported in Figure 3A, to monitor the cleavage of the holoenzyme and P RNA, were under 100 mM AmOAc and 10 mM MgCl2. The gels (13 × 16 × 0.15 cm) were electrophoresed at 20 V/cm for 2–3 h. UV shadowing or ethidium bromide staining was used to visualize RNA cleavage. Detection of minihelix fluorescence was achieved without staining using a UV lamp with excitation at ∼254 nm.
Screening was performed with the Spectrum Collection (MicroSource Discovery Systems, Inc), which comprises 2560 compounds, each dissolved in DMSO at 10 mM. For our initial screening, compounds from this collection were tested in cocktails; eight compounds were tested per well in 384-well format. The final concentration of each compound in the cocktail was 1.25 mM. For the activity assay, reactions were set up in a total volume of 20 μl (13.5 μl of activity buffer, 1.5 μl of fluorescent Mh at 3.6 μM, 3 μl of DMSO or cocktail). […] The control wells included for each experiment series were: (i) reaction with twice (3 μl) the fluorescent Mh amount to avoid a signal saturation for the rest of the wells, (ii) two reactions with 10% DMSO (no cocktail), (iii) Mh substrate only, with no ribozyme, (iv) reaction with 100 mM CaCl2, which it is used as a negative control as it competes with MgCl2 (EDTA was not used because metal ions are essential to maintaining the structure of P RNA ([41])). The reaction was initiated by adding 2 μl of holoenzyme at 333 nM and monitored as described above. Each round of experiments contained twenty different cocktails corresponding to one row of a 384-well plate (Supplementary Figures S6 and S24). […] At this stage, each compound from the inhibitory cocktails was tested at a final concentration of 1 mM (2 μl of the 10 mM stock). We performed a gel-based assay for the nine selected compounds to qualitatively verify the results obtained by the fluorescence assay (Supplementary Figure S9). After deconvolution, each of the final four potential positive compounds was purchased individually from a different provider (Sigma-Aldrich) and tested inhibition using the T. maritima Mh, pre-tRNA and bipartite pre-tRNA substrates (Figure 2 and Supplementary Figures S10–S12 and S14).
Supplementary Figure 9. Consistent results between fluorescence- and gel-based assays. (A) Plots of fluorescent kinetic assays performed in standard conditions in the presence of the different hits at a concentration of 250 µM (four-fold lower concentration as compared to Supplementary Figure 8). (B) End-point assays of the RNase P holoenzyme from Thermotoga maritima in the presence of the non-fluorescent minihelix substrate and the different inhibitor hits at 500 µM, as assessed by 20% urea-PAGE.
The holoenzyme at 0.5 µM was preincubated at 37° C for 30 minutes in the presence of the individual compounds, centrifuged for 15 minutes at 12000g and incubated with the Mh substrate at 18 µM at 37 °C for 15 minutes. At this stage, iodoquinol was the only compound whose behavior was not corroborated in both assays (panels A and B). […]
experiments reported in this Figure. […] Alexidine […]

For assay [2], the target named is T1, RNase P holoenzyme from Thermotoga maritima. In words: Real-time fluorescence-based (FRET) RNase P activity assay with minihelix (Mh) substrate. Type of assay: biochemical. Particulars: 100 mM MgCl2. As to the method: The reconstitution of the RNase P holoenzyme was performed as described in ([40],[19]). This protocol produces a homogeneous and functional ribozyme that can be crystallized by mixing P RNA and P protein in a 1:1.1 molar ratio in 1× TH buffer (33 mM Tris–HCl, 66 mM HEPES, pH 7.4) and 400 mM ammonium acetate (AmOAc). The mixture was heated to 95°C for 2 min in a water bath, then chilled on ice for 2 min, after which MgCl2 was added to a final concentration of 100 mM. […] This higher concentration was used in all experiments described herein. The holoenzyme was further incubated at 50°C for 10 min and 37°C for 40 min. The final concentration of holoenzyme was 333 nM (35.6 μg/ml of P RNA and 4.7 μg/ml of P protein).
The minihelix (Mh) substrate (Figure 1A) was adopted from a previously characterized RNase P substrate, pMini3bpUG ([32],[33]) and coupled to either Black Hole Quencher 1 (BHQ1) or Black Hole Quencher 2 (BHQ2) at the 5′-end and Alexa Fluor 488 at the 3′-end. This probe was purchased either from Sigma-Aldrich or Integrated DNA Technologies (IDT). A requested scale of […] yielded between 6.3 and 20 nmol (57.5 to 181 μg, enough for 1300–4000 reactions depending on the experimental substrate concentration). Before use, the minihelix was diluted from a 100 μM stock (dissolved in water) to 3.6 μM in activity buffer H (33 mM Tris–HCl, 66 mM HEPES, pH 7.4, 400 mM AmOAc and 100 mM MgCl2).
Reactions were performed in a total volume of 20 μl. Pipetting was done by hand using multichannel pipettes. First, an 18 μl reaction mixture containing 16.5 μl of activity buffer (H for Mh or L supplemented with 10% PEG 200 for bipartite pre-tRNA) and 270 nM (Mh) or 135 nM (bipartite pre-tRNA) (1.5 or 0.7 μl of the 3.6 μM stock) of the fluorescent substrate probe was pre-incubated on ice for at least 5 m in a black polystyrene 384-well microtiter microplate with a flat transparent bottom (Corning ref 3540). The holoenzyme was then added at a final concentration of 33 nM (2 μl of a 333 nM stock) in 1× TH buffer and mixed. Kinetic activity was monitored in a Synergy MX Multimode Detector (BioTek) at 37°C with rapid agitation. At least 20 readings were taken per well every 15 s. The probe was excited at 485 nm, and its emission was monitored at 535 nm with an integration time of 1 s. From the plots of relative fluorescent units (RFU) versus time, linear regression was used to determine the slopes in the linear portion of the curves, using at least 12 data points to obtain initial velocities. Non-linear fitting to obtain the Michaelis–Menten parameters was performed using GraphPad Prism® 6.01 software.
Supplementary Figure 3. FRET assays of RNase P with the fluorescent substrate are reproducible. (A) Representative plots of kinetic assays performed in a single run. The standard assay (SA), (+), was performed at 37° C in a total volume of 20 µL and contained RNase P holoenzyme at 33 nM, substrate minihelix (Mh) at 270 nM, 10% DMSO and activity buffer (AB).
The negative control assay (-) contained 100 mM CaCl2 in place of MgCl2. Ten to twelve wells were monitored simultaneously in a typical assay. (B) Zoomed view of the linear region of the kinetic assays shown in panel A. Fluorescence readings were performed every 15-20 seconds.
Linear regression calculations were done using the GraphPad Prism 7 software. (C) The coefficient Z’-factor (1) was used as an indicator of reproducibility and was calculated based on the relative fluorescence units (RFU) in the plateau phase (taken at 20 minutes). The Z’-factor has a […]
presented in this work were either measured in triplicate or confirmed in subsequent assays. (D) […]
assay is robust. The IC50 values reported in Figures 1C and 2 were calculated according to this kinetic parameter. There is a negative drift in fluorescence in the case of the negative control.
However, it should be noted that the mean value of it (-279) is much smaller than the signal of the […]
positive control (3397). […]

For assay [3], the system named is 3'-biotinylated minihelix (Mh; pMini3bpUG) (RNA, hairpin) GAUCUGAAUGCGGAAACGCGCCAC
As to the kind of experiment: biolayer interferometry. Particulars: Mg2+ 10 mM, NH4+ 100 mM (ammonium acetate); 20 mM HEPES pH 7.4, DMSO, 30°C; compound 15.6-500 µM.

A further assay concerns the target minihelix (Mh). In words: Biolayer interferometry binding to biotinylated minihelix substrate. Particulars: BLI. As to the method: 3′-Biotinylated minihelix was purchased from Integrated DNA Technologies (IDT) (24-mer RNA sequence, 5′-[…]-3′-Biotin). The biotinylated minihelix was immobilized on Super Streptavidin (SSA) biosensors at a concentration of 10 μM. […] For the titration experiments, 10 μM of 3′-biotinylated minihelix was immobilized for 300 s on Super Streptavidin (SSA) biosensors, followed by a wash step of 100 s and association and dissociation steps of 200 s in the presence of 6 different concentrations of compound ranging from 500 to 15.6 μM. SSA biosensors with no minihelix were used to measure non-specific binding of compounds. All other parameters (buffer, instrument control, analysis) are as described above.
Supplementary Figure 16. Binding assays monitor the interaction of compounds with the minihelix (Mh). Gentian violet and methylene blue bind in a dose-dependent relationship to the artificial minihelix substrate. […]
interaction between the minihelix and (A) gentian violet (KD=8 µM ) and (B) methylene blue A 3′-biotinylated substrate minihelix at 10 µ M was immobilized on super streptavidin (SSA) biosensors for 300 s.
Supplementary Figure 17. pre-tRNA displaces bound purpurin in a dose-response […]
indicating a true competition between purpurin and pre-tRNA binding sites. […]
(In general: Biolayer interferometry detects binding as a change in optical thickness at a sensor tip.)

A further assay concerns the target T2, P protein (Thermotoga maritima, UniProt Q9X1H4).
T2 construct: GST (cleaved yes); made in house; host or cells: E. coli BL21(DE3)pLysS
T2 sequence (Q9X1H4 1-117): T1 sequence (Q9X1H4 1-117)
As to the kind of experiment: Binding hindrance of the 5′ RNA leader to the P protein (BLI). Particulars: compound 100 μM, 5′ RNA leader 5 μM. More on the design: species or system T. maritima. As to the method: A 5′ RNA leader sequence with 10-bases 5′-GGAAAAAGAU-3′ was purchased from IDT and used at a concentration of 5 μM. This sequence is the same used to obtain the crystal structure of the RNase P holoenzyme ([19]). The His-tagged P protein was immobilized on Ni-NTA biosensors at 0.05 mg/ml (3.4 μM). […] The steps performed on the assay and their periods were: P protein immobilization (400 s), wash (100 s), baseline […] (1000 rpm), compound association (800 s), compound dissociation (200 s) (500 rpm), baseline (100 s), 5′ leader association (200 s), 5′ leader dissociation (200 s) (1000 rpm). The assay was performed at 30°C. The compounds were used at 100 μM throughout. All assay steps were performed in 20 mM HEPES pH 7.4, 100 mM ammonium acetate, 10 mM MgCl2, 5% DMSO.
5 ′ RNA leader. (A) Experimental design of 5′ RNA leader binding hindrance experiments. Figures B-F are based on the analysis region depicted in panel A, where association and dissociation of the 5′ RNA leader to the P protein (TmP) is measured over time. P protein at 3.5 µM was immobilized on Ni-NTA biosensors for 300 s, while compounds were assayed at 100 µM and the […]
binding, in contrast with hematein (E) and purpurin (F).
(1 picture or pasted object on this page, not shown here)

This is an account of results in PMC6614837 (Nucleic Acids Research, 2019).

Several values for one entry are separate records, joined by “and”; a condition that tells them apart may be missing. Equal entries are not always repeated. Structures can show the parent of a compound that is named as a salt.

Usually IC50 stands for the point on the concentration scale where inhibition reaches its midpoint. Usually KD stands for the constant that tells how readily two partners part at equilibrium. Higher therefore signals a looser complex. A word on the Kd: it is the equilibrium constant for the complex coming apart. A high value points to a looser complex.

As to `Cc1cc(O)c2c(c1)C(=O)c1cc(O)cc(O)c1C2=O` [emodin], in assay [1], the “Inhibition of RNase P in fluorescence and gel verification” value was “did not inhibit RNase P”.
For the molecule `CN(C)c1ccc2nc3ccc(=[N+](C)C)cc-3sc2c1` [methylene blue, reference compound], in assay [2] (fluorescent Mh substrate 270 nM, holoenzyme 33 nM, 10% DMSO, 37°C, 400 mM AmOAc), the half-maximal inhibitory concentration (IC50) is 110 µM and 109 µM. The equilibrium dissociation constant (KD) in assay [3] is reported as 35 µM. For the same molecule, the Kd on minihelix (Mh) (3′-biotinylated minihelix 10 μM on SSA biosensors) was 35 µM. The “Binding to the minihelix substrate” value with minihelix (Mh) (initial screening at 1 mM and titration) is recorded as “binding signal”. Besides, at P protein, the “Hindrance of 5′ RNA leader binding to the P protein” value is given as “did not interfere with RNA leader”.
Turning to `O=C(N/N=C/c1ccc([N+](=O)[O-])o1)c1cc([N+](=O)[O-])cc([N+](=O)[O-])c1O` [nifursol, reference compound], the “Inhibition of RNase P in fluorescence and gel verification” value in assay [1] is given as “weak inhibitor”.
The same measure, in the same setting: then `N=C1C=CC(=C(c2ccc(N)cc2)c2ccc(N)cc2)C=C1` [Pararoseaniline], with “did not inhibit RNase P”.
For `NC[C@@H]1O[C@H](O[C@H]2[C@@H](O)[C@H](O[C@@H]3[C@@H](O)[C@H](N)C[C@H](N)[C@H]3O[C@H]3O[C@H](CN)[C@@H](O)[C@H](O)[C@H]3N)O[C@@H]2CO)[C@H](N)[C@@H](O)[C@@H]1O` [neomycin B, reference compound], the “Inhibition of RNase P (Mh fluorescence assay)” value in assay [2] is “did not detect inhibition”.
Take `CCCCC(CC)CNC(=N)NC(=N)NCCCCCCNC(=N)NC(=N)NCC(CC)CCCC` (stereo not drawn) [alexidine hydrochloride]: the “Inhibition of RNase P in fluorescence and gel verification” value in assay [1] is “seems to precipitate the holoenzyme”.
Same read-out and setting: then `Oc1c(I)cc(I)c2cccnc12` [iodoquinol, reference compound], with “false positive”.
Regarding `NC[C@H]1O[C@H](O[C@H]2[C@H](O)[C@@H](O[C@H]3O[C@H](CO)[C@@H](O)[C@H](N)[C@H]3O)[C@H](N)C[C@@H]2N)[C@H](N)[C@@H](O)[C@@H]1O` [kanamycin B, reference compound], the “Inhibition of RNase P (Mh fluorescence assay)” value in assay [2] is listed as “did not detect inhibition”.
